“Also recorded” adds a separate entry of the source. Where two headings read alike, the source gives them in different places.
Columns and labels:
[1] = tested on: Caenorhabditis elegans; experiment: Nematicidal activity, microtiter plate assay; format: cell-based; details: for LD50 / LD90 / nematicidal activity (in words): C. elegans; for LD50 / LD90: tested at 100, 50, 25 and 12.5 μg/mL, no: not obtained; for mortality: at concentrations of 50 and 100 μg/mL
Protocol: Nematicidal activity was performed using Caenorhabditis elegans in a microtiter plate assay as described by Rupcic et al. (2018). The assay was performed in four concentrations (100, 50, 25 and 12.5 μg/mL). Ivermectin was used as a positive control at the same concentration ranges as the tested compounds and MeOH was used as a negative control. Percentages of mortality were calculated, then the results were expressed as a LD90 and LD50.

[2] = tested on: L929, KB3-1, A549, PC-3, A431, SKOV-3 and MCF-7 cell lines; experiment: Cytotoxicity, MTT method, statements over the cell line panel; format: cell-based
Protocol: (§1) The cytotoxicity against the murine fibroblasts L929, human cervix carcinoma KB-3-1, human lung carcinoma A549, human prostate cancer PC-3, epidermoid carcinoma A431, ovarian carcinoma SKOV-3, and breast cancer MCF-7 cell lines was determined by using the MTT (2-(4,5-dimethylthiazol-2-yl)-2,5-diphenyltetrazolium bromide) method in 96-well microplates as previously described. Briefly, the cell lines were cultured in DMEM (Gibco), 60 µL aliquots of serial dilutions from an initial stock of 1 mg/mL in MeOH of the test compounds were added to 120 µL aliquots of a cell suspension (5 × 10^4 cells/mL) in 96-well microplates. After 5 days incubation, an MTT assay was performed, and the absorbance measured at 590 nm using an ELISA plate reader (Victor). The concentration at which the growth of cells was inhibited to 50% of the control (IC50) was obtained from the dose–response curves. Epothilone B was used as the positive control.

[3] = design: method as in PMID 28991218; details: cited from earlier work
[4] = design: method as in PMID 28991218; details: cited from earlier work; remark: listed apart in the source
[5] = tested on: murine fibroblasts L929; experiment: Cytotoxicity, MTT method, L929; format: cell-based; details: Mus musculus, L929, 120 h, read-out: IC50 L929
Protocol: as §1

[6] = tested on: human prostate cancer PC-3; experiment: Cytotoxicity, MTT method, PC-3; format: cell-based; details: 120 h, read-out: IC50 PC-3
Protocol: as §1

[7] = tested on: breast cancer MCF-7; experiment: Cytotoxicity, MTT method, MCF-7; format: cell-based; details: Homo sapiens, MCF7, 120 h, read-out: IC50 MCF-7
Protocol: as §1

[8] = tested on: human cervix carcinoma KB-3-1; experiment: Cytotoxicity, MTT method, KB-3-1; format: cell-based; details: KB 3-1, 120 h, 5 days incubation, na: not active, read-out: IC50 KB3.1
Protocol: as §1

[9] = tested on: human lung carcinoma A549; experiment: Cytotoxicity, MTT method, A549; format: cell-based; details: A549, 120 h, 5 days incubation, na: not active
Protocol: as §1

[10] = tested on: epidermoid carcinoma A431; experiment: Cytotoxicity, MTT method, A431; format: cell-based; details: Homo sapiens, A-431, 120 h, 5 days incubation, na: not active
Protocol: as §1

[11] = tested on: ovarian carcinoma SKOV-3; experiment: Cytotoxicity, MTT method, SKOV-3; format: cell-based; details: Homo sapiens, SK-OV-3, 120 h, 5 days incubation, na: not active
Protocol: as §1

[12] = tested on: A549; design: method as in PMID 36006179; details: human cancer cell line; cited from earlier work
[13] = tested on: Hs683; design: method as in PMID 36006179; details: human cancer cell line; cited from earlier work
[14] = tested on: SKMEL-28; design: method as in PMID 36006179; details: human cancer cell line; cited from earlier work
[15] = MTT, 5 days incubation, na: not active
[16] = read-out: IC50 values, range against the L929 and KB3-1 cell lines
[17] = all tested cell lines, read-out: IC50 values, range against all the tested cell lines

Compound | LD50 [1] | LD90 [1] | mortality [1] | cytotoxic activity (in words) ([2]; all tested cell lines) | IC50 [5, 15] | IC50 [8] | also measured
C/C=C/[C@@H]1OC2=C(C(=O)O[C@]2(C)O)[C@H](O)[C@H]1O [Compound 1, Massarilactone D] | not obtained and no | no | some mortality | not active |  |  | antimicrobial activity (in words) [3]: did not exhibit significant antimicrobial; cytotoxic activity (in words) [4]: did not exhibit significant antimicrobial or cytotoxic activities
C/C(=C\c1csc(C)n1)[C@@H]1C[C@@H]2O[C@]2(C)CCC[C@H](C)[C@H](O)[C@@H](C)C(=O)C(C)(C)[C@@H](O)CC(=O)O1 [epothilone B, Epothilone B, reference compound] |  |  |  |  |  |  | IC50 [5]: 0.0022 µM; IC50 [6]: 9.1e-05 µM; IC50 [7]: 7.5e-05 µM
C/C=C/C(=O)O[C@H]1C2=C(O[C@@H](/C=C/C)[C@@H]1O)[C@@](C)(OC(=O)/C=C/C)OC2=O [Compound 8, massarilactone D 4,7-di-O-crotonyl] | not obtained and no | no | some mortality |  | 50.3 µM | 18.5 µM | IC50 [2, 16]: 18.5 to 61.7 µM
C/C=C/[C@@H]1OC2=C(C(=O)O[C@]2(C)O)[C@H](O)[C@H]1OC(=O)/C(C)=C/C [Compound 6, massarilactone D 7-O-trans-2-methyl-2-butenoyl] | not obtained and no | no | some mortality |  |  |  | 
C=C(C)C(=O)O[C@H]1[C@H](/C=C/C)OC2=C(C(=O)O[C@]2(C)OC(=O)C2(C)CCC(C)=C(Cl)O2)[C@@H]1OC(=O)C(=C)C (stereo partly drawn) [Compound 2, massarilactone D 3,4-di-O-methacryloyl-7-O-(6-chloro-3,4-dihydro-2,5-dimethyl-2H-pyran-2-carbonyl)] |  |  |  | significant cytotoxicity | 5.09 µM | 13.1 µM | IC50 [9]: 32.7 µM; IC50 [6, 15]: 11.8 µM; IC50 [10]: 4 µM; IC50 [11]: 11.8 µM; IC50 [7, 15]: 7.09 µM; IC50 [2, 17]: 3.51 to 32.7 µM
C=C1OC(=O)C2=C1O[C@@H](/C=C/C)[C@H](OC(=O)/C=C/c1ccccc1)[C@H]2OC(=O)/C=C/c1ccccc1 [Compound 3, massarilactone H 3,4-di-O-trans-cinnamoyl] |  |  |  | significant cytotoxicity | 5.58 µM | 7.85 µM | IC50 [9]: 19.6 µM; IC50 [6, 15]: 7.64 µM; IC50 [10]: 4.34 µM; IC50 [11]: 13.2 µM; IC50 [7, 15]: 3.51 µM; nematicidal activity (in words) [1]: did not exhibit nematicidal activity; IC50 [2, 17]: 3.51 to 32.7 µM
C/C=C/C(=O)O[C@H]1C2=C(O[C@@H](/C=C/C)[C@@H]1O)[C@@](C)(OC)OC2=O [Compound 7, massarilactone D 4-O-crotonyl-7-O-methyl] | not obtained and no | no | some mortality |  | 61.7 µM | 55.6 µM | IC50 [2, 16]: 18.5 to 61.7 µM
C/C=C/[C@@H]1OC2=C(C(=O)O[C@]2(C)OC(=O)/C=C/c2ccccc2)[C@H](OC(=O)/C=C/c2ccccc2)[C@H]1OC(=O)/C=C/c1ccccc1 [Compound 4, massarilactone D 3,4,7-tri-O-trans-cinnamoyl] | 12.5 µg/mL | 100 µg/mL |  |  |  |  | nematicidal activity (in words) [1]: potent activity against nematodes; also recorded: good nematicidal activity
C=C1OC(=O)C2=C1OC(/C=C/C)C(O)C2O (stereo not drawn) [massarilactone H] |  |  |  |  |  |  | IC50 [12]: 32.9 µM; IC50 [13]: 31.5 µM; IC50 [14]: 35.2 µM
C/C=C/[C@@H]1OC2=C(C(=O)O[C@]2(C)OC(=O)c2ccc(Br)cc2)[C@H](OC(=O)c2ccc(Br)cc2)[C@H]1OC(=O)c1ccc(Br)cc1 [Compound 5, massarilactone D 3,4,7-tri-O-bromobenzoyl] | 100 µg/mL | not obtained and no |  |  |  |  | 
